From patent publication US5041567A, “Antibacterial monic acid derivatives” (Beecham Group plc, priority 1982, dated 1991)
Converted amounts (≈) assume the structure as drawn. Like-named read-outs stand apart in the source and are kept apart here.

How the values were obtained:
M. suipneumoniae TAM 6N = test: MIC against mycoplasma in vitro; format: cell-based
M. bovis NCTC 10131 = test: microbe, parasite or virus in culture; format: cell-based
[1] = system: Strep. pyogenes R80/421-A; test: MIC against human bacteria in vitro; format: cell-based; details: Strep. pyogenes R80/421-A, 5% chocolated horse blood agar, 18 hours
Strep. faecalis I = test: MIC against human bacteria in vitro; format: cell-based; details: Strep. faecalis I, 5% chocolated horse blood agar, 18 hours
M. gallisepticum S6 = test: MIC against mycoplasma in vitro; format: cell-based
K. aerogenes A = test: MIC against human bacteria in vitro; format: cell-based; details: K. aerogenes A, 5% chocolated horse blood agar, 18 hours
E. coli NCTC 10418 [2] = test: MIC against veterinary bacteria in vitro
Protocol: (§1) The activity of the compounds of the Examples against various veterinarily important bacteria, was assayed in vitro using two-fold serial dilutions in Diagnostic Sensitivity Test Agar inoculated with 10^4 organisms.

E. coli NCTC 10418 [3] = test: MIC against human bacteria in vitro; format: cell-based; details: E. coli NCTC 10418, agar with 5% chocolated horse blood, 18 hours, 37° C.
[4] = system: M. bovigenitalium ATCC 14173; test: MIC against mycoplasma in vitro; format: cell-based
Strep. spp. 64/848-C = test: MIC against human bacteria in vitro; format: cell-based; details: Strep. spp. 64/848-C, 5% chocolated horse blood agar, 18 hours
B. subtilis ATCC 6633 = test: MIC against veterinary bacteria in vitro
Protocol: as §1

Strep. uberis SPU1 = test: MIC against veterinary bacteria in vitro
Protocol: as §1

E. coli E1 = test: MIC against veterinary bacteria in vitro
Protocol: as §1

[5] = system: Staph. aureus 152 (pen. sens); test: MIC against veterinary bacteria in vitro
Protocol: as §1

[6] = system: Ps. aeruginosa NCTC 10662; test: MIC against human bacteria in vitro; format: cell-based; details: Ps. aeruginosa NCTC 10662, 5% chocolated horse blood agar, 18 hours
M. suipneumoniae MS 16 = test: MIC against mycoplasma in vitro; format: cell-based
P. mirabilis 889 = test: MIC against human bacteria in vitro; format: cell-based; details: P. mirabilis 889, 5% chocolated horse blood agar, 18 hours
S. typhimurium S18 = test: MIC against veterinary bacteria in vitro
Protocol: as §1

M. suipneumoniae NB12 = test: MIC against mycoplasma in vitro; format: cell-based; details: Mesomycoplasma hyopneumoniae
Strep. dysgalactiae SPD1 = test: MIC against veterinary bacteria in vitro
Protocol: as §1

Bord. bronchiseptica B09 = test: MIC against veterinary bacteria in vitro
Protocol: as §1

M. suipneumoniae Str. 11 = test: MIC against mycoplasma in vitro; format: cell-based
[7] = Mesomycoplasma hyopneumoniae, TAM6N, 144 h
[8] = Streptococcus pyogenes, read-out: MIC
[9] = Enterococcus faecalis, read-out: MIC
[10] = Klebsiella aerogenes, read-out: MIC
[11] = Escherichia coli, NCTC10418, 18 h
[12] = Escherichia coli, NCTC10418, read-out: MIC
[13] = Bacillus subtilis, ATCC6633, 18 h
[14] = Streptococcus uberis, SPU1, 18 h
[15] = Pseudomonas aeruginosa, NCTC10662, read-out: MIC
[16] = Proteus mirabilis, read-out: MIC
[17] = Salmonella enterica, TYPHIMURIUM, 18 h
[18] = Streptococcus dysgalactiae, SPD1, 18 h
[19] = Bordetella bronchiseptica, B09, 18 h
[20] = Mesomycoplasma hyopneumoniae, 144 h, M. suipneumoniae Str. 11, 6 days, 37° C., read-out: MIC
[21] = Mycoplasmoides gallisepticum, S6, 144 h
[22] = Mesomycoplasma hyopneumoniae, MS16, 144 h

Q: `C/C(=C\c1ncc(-c2ccc(S(=O)(=O)N(C)C)cc2)o1)C[C@@H]1OC[C@H](C[C@@H]2O[C@H]2[C@@H](C)[C@H](C)O)[C@@H](O)[C@H]1O` [Example 24, 5-p-Dimethylaminosulphonylphenyl-2-(1-normon-2-yl)oxazole A] was tested. Which MIC (M. suipneumoniae TAM 6N; [7]) did it give?
A: 0.25 µg/mL (≈ 0.454 µM)

Q: What about the MIC (M. bovis NCTC 10131; NCTC10131, 144 h) of the same compound?
A: 0.025 µg/mL (≈ 0.0454 µM)

Q: What about the MIC [1, 8] of the same compound?
A: 2 µg/mL (≈ 3.63 µM)

Q: What about the MIC (Strep. faecalis I; [9]) of the same compound?
A: > 128 µg/mL

Q: What about the MIC (M. gallisepticum S6; Mycoplasmoides gallisepticum, 144 h, M. gallisepticum S6, 6 days, 37° C., read-out: MIC) of the same compound?
A: 0.5 µg/mL (≈ 0.908 µM)

Q: And the MIC (K. aerogenes A; [10])?
A: > 64 µg/mL

Q: And the MIC (E. coli NCTC 10418 [2]; [11])?
A: > 80 µg/mL

Q: What about the MIC (E. coli NCTC 10418 [3]; [12]) of the same compound?
A: > 64 µg/mL

Q: What about the MIC ([4]; 144 h) of the same compound?
A: 0.1 µg/mL (≈ 0.182 µM)

Q: And the MIC (Strep. spp. 64/848-C; read-out: MIC)?
A: 4 µg/mL (≈ 7.26 µM)

Q: What about the MIC (B. subtilis ATCC 6633; [13]) of the same compound?
A: 0.312 µg/mL (≈ 0.567 µM)

Q: And the MIC (Strep. uberis SPU1; [14])?
A: 0.312 µg/mL (≈ 0.567 µM)

Q: And the MIC (E. coli E1; Escherichia coli, E1, 18 h)?
A: > 80 µg/mL

Q: And the MIC ([5]; Staphylococcus aureus, 18 h)?
A: 0.625 µg/mL (≈ 1.13 µM)

Q: And the MIC [6, 15]?
A: > 64 µg/mL

Q: And the MIC (M. suipneumoniae MS 16; Mesomycoplasma hyopneumoniae, MS16, 144 h, M. suipneumoniae MS 16, 6 days, 37° C., read-out: MIC)?
A: 0.1 µg/mL (≈ 0.182 µM)

Q: And the MIC (P. mirabilis 889; [16])?
A: > 64 µg/mL

Q: What about the MIC (S. typhimurium S18; [17]) of the same compound?
A: > 80 µg/mL

Q: And the MIC (M. suipneumoniae NB12; 144 h, M. suipneumoniae NB12, Friis broth, 0.9% agarose, 6 days, 37° C., read-out: MIC)?
A: 0.1 µg/mL (≈ 0.182 µM)

Q: What about the MIC (Strep. dysgalactiae SPD1; [18]) of the same compound?
A: 0.625 µg/mL (≈ 1.13 µM)

Q: What about the MIC (Bord. bronchiseptica B09; [19]) of the same compound?
A: 40 µg/mL (≈ 72.6 µM)

Q: And the MIC (M. suipneumoniae Str. 11; [20])?
A: 0.1 µg/mL (≈ 0.182 µM)

Q: What does the source list for `C/C(=C\c1ncc(-c2cccc([S+](C)[O-])c2)o1)C[C@@H]1OC[C@H](C[C@@H]2O[C@H]2[C@@H](C)[C@H](C)O)[C@@H](O)[C@H]1O` (stereo partly drawn) [Example 25, 5-m-Methylsulphinylphenyl-2-(1-normon-2-yl)oxazole A]?
A: MIC (M. suipneumoniae TAM 6N; [7]): 1 µg/mL (≈ 1.98 µM); MIC (M. bovis NCTC 10131; NCTC10131, 144 h): 0.025 µg/mL (≈ 0.0494 µM); MIC [1, 8]: 2 µg/mL (≈ 3.96 µM); MIC (Strep. faecalis I; [9]): > 128 µg/mL; MIC (M. gallisepticum S6; [21]): 2.5 µg/mL (≈ 4.94 µM); MIC (K. aerogenes A; [10]): > 128 µg/mL; MIC (E. coli NCTC 10418 [2]; [11]): > 80 µg/mL; MIC (E. coli NCTC 10418 [3]; [12]): > 128 µg/mL; MIC ([4]; 144 h): 0.25 µg/mL (≈ 0.494 µM); MIC (Strep. spp. 64/848-C; read-out: MIC): 4 µg/mL (≈ 7.91 µM); MIC (B. subtilis ATCC 6633; [13]): 2.5 µg/mL (≈ 4.94 µM); MIC (Strep. uberis SPU1; [14]): 0.625 µg/mL (≈ 1.24 µM); MIC (E. coli E1; Escherichia coli, E1, 18 h): > 80 µg/mL; MIC ([5]; Staphylococcus aureus, 18 h): 10 µg/mL (≈ 19.8 µM); MIC [6, 15]: > 128 µg/mL; MIC (M. suipneumoniae MS 16; [22]): 0.25 µg/mL (≈ 0.494 µM); MIC (P. mirabilis 889; [16]): > 128 µg/mL; MIC (S. typhimurium S18; [17]): > 80 µg/mL; MIC (M. suipneumoniae NB12; NB12, 144 h): 0.25 µg/mL (≈ 0.494 µM); MIC (Strep. dysgalactiae SPD1; [18]): 1.25 µg/mL (≈ 2.47 µM); MIC (Bord. bronchiseptica B09; [19]): 40 µg/mL (≈ 79.1 µM); MIC (M. suipneumoniae Str. 11; [20]): 0.5 µg/mL (≈ 0.989 µM)

Q: Which results are given for `C/C(=C\c1ncc(-c2ccccc2[N+](=O)[O-])o1)C[C@@H]1OC[C@H](C[C@@H]2O[C@H]2[C@@H](C)[C@H](C)O)[C@@H](O)[C@H]1O` [Example 26, 5-o-Nitrophenyl-2-(1-normon-2-yl)oxazole A]?
A: MIC (M. suipneumoniae TAM 6N; Mesomycoplasma hyopneumoniae, TAM6N, 144 h, M. suipneumoniae TAM 6N, 6 days, 37° C., read-out: MIC): 5 µg/mL (≈ 10.2 µM); MIC (M. bovis NCTC 10131; NCTC10131, 144 h): 0.025 µg/mL (≈ 0.0512 µM); MIC [1, 8]: 1 µg/mL (≈ 2.05 µM); MIC (Strep. faecalis I; [9]): > 128 µg/mL; MIC (M. gallisepticum S6; [21]): 2.5 µg/mL (≈ 5.12 µM); MIC (K. aerogenes A; [10]): > 128 µg/mL; MIC (E. coli NCTC 10418 [2]; [11]): > 80 µg/mL; MIC (E. coli NCTC 10418 [3]; [12]): > 128 µg/mL; MIC ([4]; 144 h): 0.25 µg/mL (≈ 0.512 µM); MIC (Strep. spp. 64/848-C; read-out: MIC): 2 µg/mL (≈ 4.09 µM); MIC (B. subtilis ATCC 6633; [13]): 0.312 µg/mL (≈ 0.639 µM); MIC (Strep. uberis SPU1; [14]): 0.156 µg/mL (≈ 0.319 µM); MIC (E. coli E1; Escherichia coli, E1, 18 h): > 80 µg/mL; MIC ([5]; Staphylococcus aureus, 18 h): 2.5 µg/mL (≈ 5.12 µM); MIC [6, 15]: > 128 µg/mL; MIC (M. suipneumoniae MS 16; [22]): 1 µg/mL (≈ 2.05 µM); MIC (P. mirabilis 889; [16]): > 128 µg/mL; MIC (S. typhimurium S18; [17]): > 80 µg/mL; MIC (M. suipneumoniae NB12; NB12, 144 h): 2.5 µg/mL (≈ 5.12 µM); MIC (Strep. dysgalactiae SPD1; [18]): 0.625 µg/mL (≈ 1.28 µM); MIC (Bord. bronchiseptica B09; [19]): 20 µg/mL (≈ 40.9 µM); MIC (M. suipneumoniae Str. 11; Mesomycoplasma hyopneumoniae, STR.11, 144 h): 2.5 µg/mL (≈ 5.12 µM)

Q: For `CC(=Cc1cnc(-c2ccccc2)o1)CC1OCC(CC2OC2C(C)C(C)O)C(O)C1O` (stereo not drawn) [Example 35, 5-(1-Normon-2-yl)-2-phenyloxazole A], which MIC (M. suipneumoniae TAM 6N; M. suipneumoniae TAM 6N, 6 days, 37° C.) is on record?
A: > 10 µg/mL

Q: What about the MIC (M. bovis NCTC 10131; M. bovis NCTC 10131, 6 days, 37° C.) of the same compound?
A: 2.5 µg/mL (≈ 5.64 µM)

Q: And the MIC [1]?
A: > 128 µg/mL

Q: And the MIC (Strep. faecalis I)?
A: > 128 µg/mL

Q: What about the MIC (M. gallisepticum S6; M. gallisepticum S6, 6 days, 37° C.) of the same compound?
A: > 10 µg/mL

Q: What about the MIC (K. aerogenes A) of the same compound?
A: > 128 µg/mL

Q: And the MIC (E. coli NCTC 10418 [2]; E. coli NCTC 10418, Diagnostic Sensitivity Test Agar, 18 hours, 37° C.)?
A: > 80 µg/mL

Q: What about the MIC (E. coli NCTC 10418 [3]) of the same compound?
A: > 128 µg/mL

Q: What about the MIC ([4]; M. bovigenitalium ATCC 14173, 6 days, 37° C.) of the same compound?
A: 5.0 µg/mL (≈ 11.3 µM)

Q: And the MIC (Strep. spp. 64/848-C)?
A: > 128 µg/mL

Q: What about the MIC (B. subtilis ATCC 6633; B. subtilis ATCC 6633, Diagnostic Sensitivity Test Agar, 18 hours) of the same compound?
A: > 80 µg/mL

Q: What about the MIC (Strep. uberis SPU1; Strep. uberis SPU1, Diagnostic Sensitivity Test Agar, 18 hours) of the same compound?
A: 80 µg/mL (≈ 180 µM)

Q: And the MIC (E. coli E1; E. coli E1, Diagnostic Sensitivity Test Agar, 18 hours, 37° C.)?
A: > 80 µg/mL

Q: What about the MIC ([5]; Staph. aureus 152 (pen. sens), Diagnostic Sensitivity Test Agar, 18 hours) of the same compound?
A: > 80 µg/mL

Q: What about the MIC [6] of the same compound?
A: > 128 µg/mL

Q: And the MIC (M. suipneumoniae MS 16; M. suipneumoniae MS 16, 6 days, 37° C.)?
A: > 10 µg/mL

Q: What about the MIC (P. mirabilis 889) of the same compound?
A: > 128 µg/mL

Q: And the MIC (S. typhimurium S18; S. typhimurium S18, Diagnostic Sensitivity Test Agar, 18 hours)?
A: > 80 µg/mL

Q: What about the MIC (Strep. dysgalactiae SPD1; Strep. dysgalactiae SPD1, Diagnostic Sensitivity Test Agar, 18 hours) of the same compound?
A: > 80 µg/mL

Q: And the MIC (Bord. bronchiseptica B09; Bord. bronchiseptica B09, Diagnostic Sensitivity Test Agar, 18 hours)?
A: > 80 µg/mL

Q: And the MIC (M. suipneumoniae Str. 11; M. suipneumoniae Str. 11, 6 days, 37° C.)?
A: > 10 µg/mL
